From patent US10144742B2 (Millennium Pharmaceuticals, Inc., priority 2014, dated 2018)
pIC50: −log10 of the molar value. Like-named read-outs stand apart in the source and are kept apart here.

Assays:
PC3 cells = assay: PC3 growth inhibition (Cell-titer glo, 72 hours); assay type: cell-based; conditions: Homo sapiens, PC-3, PC3 cells, 72 hours, Cell-titer glo, read-out: Percent Inhibition (PC3 growth inhibition); for inhibition at 1.667 µM: compound concentration 1.667 μM; for inhibition at 1 µM: compound concentration 1 μM
Summary of the method: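 Compounds in AIM serum-free medium were applied for 72 h at 37 °C, 5% CO2 to PC3 cells plated overnight from RPMI1640 culture. Luminescence after 10 min CellTiter-Glo, normalised to DMSO, gave % viability at 1 μM or 1.667 μM, or GI50/LD50.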

hNAMPT protein = hNAMPT protein (Homo sapiens (Human), UniProt P43490); assay: NAMPT enzyme assay (TR-FRET/HTRF, BodiPY ligand, anti 6His-Tb); assay type: binding; conditions: for pIC50: read-out: IC50; for inhibition at 1 µM: read-out: Percent Inhibition
Sequence of hNAMPT protein (P43490 whole entry): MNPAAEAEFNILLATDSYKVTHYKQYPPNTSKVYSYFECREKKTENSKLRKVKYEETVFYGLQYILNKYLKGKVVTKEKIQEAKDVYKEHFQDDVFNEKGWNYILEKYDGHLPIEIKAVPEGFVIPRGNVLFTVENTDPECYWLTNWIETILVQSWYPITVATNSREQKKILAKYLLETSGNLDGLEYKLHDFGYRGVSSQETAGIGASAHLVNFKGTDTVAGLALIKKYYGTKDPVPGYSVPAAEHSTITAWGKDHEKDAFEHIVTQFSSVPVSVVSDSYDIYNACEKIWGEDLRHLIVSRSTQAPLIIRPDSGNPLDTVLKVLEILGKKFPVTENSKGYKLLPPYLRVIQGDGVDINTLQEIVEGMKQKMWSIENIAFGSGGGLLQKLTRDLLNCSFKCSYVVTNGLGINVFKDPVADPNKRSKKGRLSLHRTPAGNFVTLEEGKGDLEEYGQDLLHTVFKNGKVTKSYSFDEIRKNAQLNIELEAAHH
Summary of the method: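 Compound or DMSO was incubated for 1 h at room temperature, protected from light, with BodiPY ligand and hNAMPT labelled by terbium anti-6His antibody. The 520 nm to 486 nm emission ratio after 320 nm excitation gave inhibition versus vehicle, from which concentration-response curves yielded IC50.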

[1] = NAMPT inhibition at compound concentration 1 μM
[2] = NAMPT inhibition, IC50 range class

Structure (SMILES): O=C(NCCCc1ncc[nH]1)c1ccc2nc(O[C@H]3CCOC3)c(-c3ccc(Cl)cc3)nc2c1 [Compound I-360, 3-(4-chlorophenyl)-N-[3-(1H-imidazol-2-yl)propyl]-2-[(3S)-tetrahydrofuran-3-yloxy]quinoxaline-6-carboxamide]
- inhibition at 1.667 µM (PC3 cells): 2%
- pIC50 (hNAMPT protein; NAMPT IC50 range class): > 7.00
- inhibition at 1 µM (hNAMPT protein; compound concentration 1 μM): > 99%

Structure (SMILES): O=C(NCc1ccc2nccn2c1)c1ccc2nc(-c3ccc(Cl)cc3)c(-c3ccc(Cl)cc3)nc2c1 [Compound I-487, 2,3-bis(4-chlorophenyl)-N-(imidazo[1,2-a]pyridin-6-ylmethyl)quinoxaline-6-carboxamide]
- inhibition at 1.667 µM (PC3 cells): 1%
- inhibition at 1 µM (hNAMPT protein; [1]): 70%
- pIC50 (hNAMPT protein; [2]): 6.30 to 7.00

Structure (SMILES): O=C(NCCCc1ncc[nH]1)c1ccc2nc(O[C@H]3CCOC3)c(-c3ccc(F)cc3)nc2c1 [Compound I-468, 3-(4-fluorophenyl)-N-[3-(1H-imidazol-2-yl)propyl]-2-[(3S)-tetrahydrofuran-3-yloxy]quinoxaline-6-carboxamide]
- inhibition at 1.667 µM (PC3 cells): 2%
- inhibition at 1 µM (hNAMPT protein; [1]): 99%
- pIC50 (hNAMPT protein; [2]): > 7.00

Structure (SMILES): O=C(NCCCc1ncc[nH]1)c1ccc2nc(OCC3COC3)c(-c3ccc(F)cc3)nc2c1 [Compound I-348, 3-(4-fluorophenyl)-N-[3-(1H-imidazol-2-yl)propyl]-2-(oxetan-3-ylmethoxy)quinoxaline-6-carboxamide]
- inhibition at 1.667 µM (PC3 cells): 3%
- pIC50 (hNAMPT protein; NAMPT IC50 range class): > 7.00
- inhibition at 1 µM (hNAMPT protein; compound concentration 1 μM): > 99%

Structure (SMILES): O=C(NCCCn1ccnc1)c1ccc2nc(-c3ccccc3)c(-c3cccs3)nc2c1 [Compound I-236, N-[3-(1H-imidazol-1-yl)propyl]-2-phenyl-3-(2-thienyl)quinoxaline-6-carboxamide]
- inhibition at 1 µM (PC3 cells): 1%
- pIC50 (hNAMPT protein; NAMPT IC50 range class): > 7.00
- inhibition at 1 µM (hNAMPT protein; compound concentration 1 μM): 99%

Structure (SMILES): COc1cccc(-c2nc3ccc(C(=O)NCCc4ncc[nH]4)cc3nc2-c2cccc(OC)c2)c1 [Compound I-134, N-[2-(1H-imidazol-2-yl)ethyl]-2,3-bis(3-methoxyphenyl)quinoxaline-6-carboxamide]
- inhibition at 1 µM (PC3 cells): -3%
- pIC50 (hNAMPT protein; NAMPT IC50 range class): 6.00 to 6.30
- inhibition at 1 µM (hNAMPT protein; compound concentration 1 μM): 65%

Structure (SMILES): N#CC1CCN(c2nc3cc(C(=O)NCCCn4ccnc4)ccc3nc2-c2ccccc2)C1 (stereo not drawn) [Compound I-17, 3-(3-cyanopyrrolidin-1-yl)-N-[3-(1H-imidazol-1-yl)propyl]-2-phenylquinoxaline-6-carboxamide]
- inhibition at 1 µM (PC3 cells): 4%
- pIC50 (hNAMPT protein; NAMPT IC50 range class): 5.00 to 5.70
- inhibition at 1 µM (hNAMPT protein; compound concentration 1 μM): 19%

Structure (SMILES): O=C(NCCCc1ncc[nH]1)c1ccc2nc(OCC3CCCC3)c(-c3ccc(F)cc3)nc2c1 [Compound I-500, 2-(cyclopentylmethoxy)-3-(4-fluorophenyl)-N-[3-(1H-imidazol-2-yl)propyl]quinoxaline-6-carboxamide]
- inhibition at 1.667 µM (PC3 cells): 3%
- inhibition at 1 µM (hNAMPT protein; [1]): 93%
- pIC50 (hNAMPT protein; [2]): > 7.00

Structure (SMILES): C#CCOc1nc2ccc(C(=O)NCCCc3ncc[nH]3)cc2nc1-c1ccc(F)cc1 [Compound I-462, 3-(4-fluorophenyl)-N-[3-(1H-imidazol-2-yl)propyl]-2-(prop-2-yn-1-yloxy)quinoxaline-6-carboxamide]
- inhibition at 1.667 µM (PC3 cells): 2%
- inhibition at 1 µM (hNAMPT protein; [1]): 95%
- pIC50 (hNAMPT protein; [2]): > 7.00

Structure (SMILES): O=C(NCCCn1ccnc1)c1ccc2nc(-c3ccsc3)c(-c3ccccc3)nc2c1 [Compound I-60, N-[3-(1H-imidazol-1-yl)propyl]-3-phenyl-2-(3-thienyl)quinoxaline-6-carboxamide]
- inhibition at 1 µM (PC3 cells): -4%
- pIC50 (hNAMPT protein; NAMPT IC50 range class): 6.00 to 6.30
- inhibition at 1 µM (hNAMPT protein; compound concentration 1 μM): 51%

Structure (SMILES): O=C(NCCCc1ncc[nH]1)c1ccc2nc(N3CCOCC3)c(-c3ccc(Cl)cc3)nc2c1 [Compound I-104, 3-(4-chlorophenyl)-N-[3-(1H-imidazol-2-yl)propyl]-2-(morpholin-4-yl)quinoxaline-6-carboxamide]
- inhibition at 1.667 µM (PC3 cells): 2%
- pIC50 (hNAMPT protein; NAMPT IC50 range class): > 7.00
- inhibition at 1 µM (hNAMPT protein; compound concentration 1 μM): 100%

Structure (SMILES): O=C(c1ccc2nc(-c3ccc(F)cc3)c(-c3ccc(F)cc3)nc2c1)N1CCc2nc[nH]c2C1 [Compound I-121, [2,3-bis(4-fluorophenyl)quinoxalin-6-yl](3,4,6,7-tetrahydro-5H-imidazo[4,5-c]pyridin-5-yl)methanone]
- inhibition at 1 µM (PC3 cells): 99%
- pIC50 (hNAMPT protein; NAMPT IC50 range class): 5.00 to 5.70
- inhibition at 1 µM (hNAMPT protein; compound concentration 1 μM): 12%

Structure (SMILES): COc1ccc(C)c(-c2nc3cc(C(=O)NCCCc4ncc[nH]4)ccc3nc2-c2ccc(F)cc2)c1 [Compound I-467, 2-(4-fluorophenyl)-N-[3-(1H-imidazol-2-yl)propyl]-3-(5-methoxy-2-methylphenyl)quinoxaline-6-carboxamide]
- inhibition at 1.667 µM (PC3 cells): 2%
- inhibition at 1 µM (hNAMPT protein; [1]): 94%
- pIC50 (hNAMPT protein; [2]): > 7.00

Structure (SMILES): CS(=O)(=O)C1CCN(c2nc3ccc(C(=O)NCCCn4ccnc4)cc3nc2-c2ccccc2)C1 (stereo not drawn) [Compound I-150, N-[3-(1H-imidazo-1-yl)propyl]-2-[3-(methylsulfonyl)pyrrolidin-1-yl]-3-phenylquinoxaline-6-carboxamide]
- inhibition at 1 µM (PC3 cells): -7%
- pIC50 (hNAMPT protein; NAMPT IC50 range class): 6.30 to 7.00
- inhibition at 1 µM (hNAMPT protein; compound concentration 1 μM): 75%

Structure (SMILES): C[C@@H]1CN(c2nc3ccc(C(=O)NCCCc4ccc(N)nc4)cc3nc2-c2ccc(F)cc2)C[C@H](C)O1 [Compound I-485, N-[3-(6-aminopyridin-3-yl)propyl]-2-[cis-2,6-dimethylmorpholin-4-yl]-3-(4-fluorophenyl)quinoxaline-6-carboxamide]
- inhibition at 1.667 µM (PC3 cells): 2%
- inhibition at 1 µM (hNAMPT protein; [1]): 96%
- pIC50 (hNAMPT protein; [2]): > 7.00

Structure (SMILES): O=C(NCCCc1ncc[nH]1)c1ccc2nc(-c3ccc(F)cc3)c(-c3ccc(Cl)s3)nc2c1 [Compound I-499, 3-(5-chloro-2-thienyl)-2-(4-fluorophenyl)-N-[3-(1H-imidazol-2-yl)propyl]quinoxaline-6-carboxamide]
- inhibition at 1.667 µM (PC3 cells): 2%
- inhibition at 1 µM (hNAMPT protein; [1]): 98%
- pIC50 (hNAMPT protein; [2]): > 7.00

Structure (SMILES): O=C(NCCCc1ncc[nH]1)c1ccc2nc(-c3ccccc3)c(-c3cccs3)nc2c1 [Compound I-477, N-[3-(1H-imidazol-2-yl)propyl]-2-phenyl-3-(2-thienyl)quinoxaline-6-carboxamide]
- inhibition at 1.667 µM (PC3 cells): 2%
- inhibition at 1 µM (hNAMPT protein; [1]): > 99%
- pIC50 (hNAMPT protein; [2]): > 7.00

Structure (SMILES): COc1cc(-c2nc3cc(C(=O)NCCCc4ncc[nH]4)ccc3nc2-c2ccc(F)cc2)ccc1F [Compound I-488, 3-(4-fluoro-3-methoxyphenyl)-2-(4-fluorophenyl)-N-[3-(1H-imidazol-2-yl)propyl]quinoxaline-6-carboxamide]
- inhibition at 1.667 µM (PC3 cells): 2%
- inhibition at 1 µM (hNAMPT protein; [1]): 98%
- pIC50 (hNAMPT protein; [2]): > 7.00

Structure (SMILES): NC(=O)c1cn2c(n1)CN(C(=O)c1ccc3nc(-c4ccc(F)cc4)c(-c4ccc(F)cc4)nc3c1)CC2 [Compound I-123, 7-{[2,3-bis(4-fluorophenyl)quinoxalin-6-yl]carbonyl}-5,6,7,8-tetrahydroimidazo[1,2-a]pyrazine-2-carboxamide]
- inhibition at 1 µM (PC3 cells): 96%
- pIC50 (hNAMPT protein; NAMPT IC50 range class): 5.00 to 5.70
- inhibition at 1 µM (hNAMPT protein; compound concentration 1 μM): 31%

Structure (SMILES): COc1cc(-c2nc3cc(C(=O)NCCCc4ncc[nH]4)ccc3nc2OC(C)C)c(F)cn1 [Compound I-392, 3-(5-fluoro-2-methoxypyridin-4-yl)-N-[3-(1H-imidazol-2-yl)propyl]-2-isopropoxyquinoxaline-6-carboxamide]
- inhibition at 1.667 µM (PC3 cells): 1%
- pIC50 (hNAMPT protein; NAMPT IC50 range class): 6.30 to 7.00
- inhibition at 1 µM (hNAMPT protein; compound concentration 1 μM): 91%

Structure (SMILES): N#CC1CCN(c2nc3ccc(C(=O)NCCCn4ccnc4)cc3nc2-c2ccccc2)C1 (stereo not drawn) [Compound I-106, 2-(3-cyanopyrrolidin-1-yl)-N-[3-(1H-imidazol-1-yl)propyl]-3-phenylquinoxaline-6-carboxamide]
- inhibition at 1 µM (PC3 cells): -5%
- pIC50 (hNAMPT protein; NAMPT IC50 range class): 6.00 to 6.30
- inhibition at 1 µM (hNAMPT protein; compound concentration 1 μM): 60%
